Test results: patent US20220273703A1, “NRF2 ACTIVATION FOR TREATMENT OF NEPHROGENIC DIABETES INSIPIDUS” (University Of Pittsburgh-Of The Commonwealth System Of …, priority 2019, published 2022)
Like-named read-outs stand apart in the source and are kept apart here.

Assays:
Nrf2 gene target NQO1 = assay: NQO1 expression (immunoblotting) in primary human renal cortical cells; format: cell-based
Method: Cell culture: Primary human distal tubule cells from human adult kidneys were isolated and cultured as previously described (Emlet et al., Am. J. Physiol.-Ren. Physiol. 312, (2017)). Confluent monolayers of cells were incubated with vehicle control, LiCl or CDDO-Im for 18 hr in serum-free hormonally defined media followed by preparation of lysates for immunoblotting.
(§1) Immunoblotting: Flash-frozen kidneys were homogenized in ice-cold Radio Immuno Precipitation Assay (RIPA) buffer containing protease and phosphatase inhibitor cocktails. Cells were treated as indicated. At time of collection, cells were washed 2× with cold PBS and lysates were prepared in 4° C. lysis buffer containing protease inhibitors. Protein was quantified by bicinchoninic acid (BCA) assay (Pierce) and sample containing 15-25 μg total cellular protein was loaded on 4-12% reducing Bis-Tris gel. Resolved proteins were transferred to 0.45 μm nitrocellulose membrane, blocked with 5% non-fat dry milk or 5% bovine serum albumin in TRIS® buffered saline (TBS)-0.1% Tween 20 for 1 hr. Membranes were incubated with primary antibody (1:1000 dilution) for 1 hr at room temperature or overnight at 4° C. Appropriate secondary antibody was applied at dilution of 1:5000 for 1 hr, membrane washed thrice in TBS-0.1% Tween-20 and membrane visualized with Clarity ECL chemiluminescence kit and ChemiDoc imager (Bio-Rad, Hercules, Calif.).
To establish a murine model of NDI, mice were administered control chow diet or 0.17% LiCl diet for 0-7 days (FIG. 1A) during which body weight, food intake (Suppl. FIG. 1) and water intake (FIG. 1B) were monitored. […]
To further test the distribution of Nrf2 and sensitivity to activation in a translational model, NQO1 expression was determined in a cell culture model systems of primary human renal cortical cells representing proximal tubule (PT) and distal tubule (DT) cell populations (Emlet et al., Am. J. Physiol. - Ren. Physiol. 312, (2017)) in the presence or absence of the Nrf2 activator CDDO-Imidazolide (CDDO-Im) (FIG. 5C-F). […]

[1] = Nrf2-/- mice
[2] = Dietary Li administration in Keap1f/f mice (constitutive Nrf2 activation); format: in vivo
Method: (§2) Water and Urine: Mice and food were weighed daily. Water was supplied in 50 mL conical with sipper tube as described (bio-protocol.org/e1822), and daily water intake was determined by weight. Spot urine was collected after spontaneous voiding on plastic wrap and urine osmolality measured in technical duplicate with Wescor 5500® Vapor Pressure Osmometer using lOuL urine and the average value reported each mouse.
as §1
Consequently, Li was administered to mice with constitutive pharmacomimetic Nrf2 activation (Keap1^f/f) to test whether Nrf2 and Li induced NDI via synergistic or additive mechanisms (FIG. 3A). To our surprise, instead of exacerbating the renal toxicity of Li, activation of Nrf2 signaling conferred significant protective effects.
The duration of Li therapy in humans is on the order of months to decades. An experiment was done to evaluate if Nrf2 hyperactivation conferred long-term protection from the development of Li-NDI. 6-8 week old WT and Keap1^flox/flox mice were randomized to control or 0.17% LiCl diet for 8 months.

Nrf2 [3] = assay: 10-nitro-9(E)-octadec-9-enoic acid in nephrogenic diabetes insipidus; details: in vivo
From the text: The pharmacologic activation of Nrf2 with CDDO-Me provided motivation to evaluate the viability of 10-nitro-9(E)-octadec-9-enoic acid as an activator and potential API for treating or preventing NDI.

Nrf2 [4] = assay: CDDO-Me in the Li-NDI mouse model; format: in vivo, mice; details: 5 mg/kg I.P., q.d.
Method: FIGS. 9A-9J. Pharmacologic activation of Nrf2 using CDDO-Me protects against polydipsia in Li-NDI via an AQP2-independent mechanism. (A) Schematic of model of Li-NDI. All mice received normal chow for 0-3d and were randomized to vehicle or CDDO-Me (5 mg/kg I.P., q.d.). At day 3, mice were randomized to either normal chow or 0.17% LiC1 diet. (B) Animal weights as a function of time, normalized to starting weight. (C) 24 hr food intake normalized to body weight. (D) Changes in water intake as a % of baseline expressed as mean±SE (n=6-8 per group). *(p<0.05) denotes statistical significance compared to LiC1-Vehicle by two-way ANOVA with Dunnet correction for multiple comparisons. (E) Immunoblotting of whole-kidney lysates for glycosylated ( ? , 45 kDa) and non-glycosylated ( ? , 29 kDa) AQP2 and NQO1; (F-H) Densitometry showing individual values, mean±SE with statistical analysis by one-way ANOVA with Tukey correction for multiple comparisons. (I) Plasma Li concentration. […]
as §2, with “mouse. […]” for “mouse.”

Structure (SMILES): [Cl-].[Li+] [LiCl]
- NQO1 expression (Nrf2 gene target NQO1; Li 10 mM and 50 mM, Mucin 1-enriched distal tubule cells and CD10/CD13 proximal tubule cells): No increase
- body weight ([1]; Li diet 6 days): slightly reduced
- Food intake ([1]; first 3 days of LiCl diet): modestly suppressed
- urine osmolality ([1]; spot urine, day 11): 176+/−43 mOsm/kg
- renal protein expression of Nrf2 gene target NQO1 (0.17% LiCl diet, 7 days): without impacting
- Water intake (0.17% LiCl diet, after 4 days): significantly increased
- renal expression of AQP2 (0.17% LiCl diet, by 7 days): significantly downregulated
- urine osmolality (hyposthenuria) (0.17% LiCl diet, day 7, spot urine): significant hyposthenuria
- Expression of NQO1 in kidney (Example 4, Li treatment): not affected
- glycosylated and non-glycosylated AQP2 isoforms in kidney (Example 4, both WT and Keap1f/f groups): significantly reduced
- volume status when water intake clamped to baseline intake (LiCl diet, baseline-clamped water): significant volume depletion with hypernatremia and polycythemia
- renal expression of CA-II (WT animals): reduced
- renal COX-1 expression (WT mice): down-regulate
- renal COX-2 expression (WT mice): down-regulate
- spot urine osmolality (WT-Li cohort, day 13): 359+/−192 mOsm/kg
- reduction in body mass (WT-Li mice, Example 4): ~5%
- plasma Li+ (both WT and Keap1f/f groups on LiCl diet): equivalently elevated
- total expression of NCC (tNCC) (kidney lysates, WT-Li cohort): unchanged
- Activating phosphorylation of NCC at threonine 53 (pNCC, T53) (kidney lysates, both genotypes): reduced
- water intake (polydipsia) ([2]; Keap1f/f mice receiving Li): normodipsic
- body mass change vs control diet ([2]; Keap1f/f mice receiving LiCl): no change
- urine osmolality ([2]; Keap1f/f-Li cohort, day 13): 758+/−703 mOsm/kg
- average daily water intake compared to WT-Ctrl ([2]; Keap1flox/flox-Li mice, 0.17% LiCl diet): no significant increase
- total expression of NCC (tNCC) ([2]; kidney lysates, Keap1f/f-Li cohort): significantly reduced

Structure (SMILES): CC1(C)CC[C@]2(C(=O)n3ccnc3)CC[C@]3(C)[C@H](C(=O)C=C4[C@@]5(C)C=C(C#N)C(=O)C(C)(C)[C@@H]5CC[C@]43C)[C@@H]2C1 [CDDO-Im, CDDO-Imidazolide]
- NQO1 expression (Nrf2 gene target NQO1; CD-10/CD-13 positive HAK cells (proximal tubule), exposure to CDDO-Im): did not further increase
- elevation in NQO1 (Nrf2 gene target NQO1; MUC1 positive cells (distal tubule), exposure to CDDO-Im): 3 fold

Structure (SMILES): CCCCCCCC/C(=C\CCCCCCCC(=O)O)[N+](=O)[O-] [10-nitro-9(E)-octadec-9-enoic acid]
- symptoms of nephrogenic diabetes insipidus (Nrf2 [3]): reduced symptoms of nephrogenic diabetes insipidus

Structure (SMILES): COC(=O)[C@]12CCC(C)(C)C[C@H]1[C@H]1C(=O)C=C3[C@@]4(C)C=C(C#N)C(=O)C(C)(C)[C@@H]4CC[C@@]3(C)[C@]1(C)CC2 [CDDO-Me, Bardoxolone methyl]
- food consumption (Nrf2 [4]; with LiCl diet): without impacting
- increase of renal NQO1 expression (Nrf2 [4]; whole-kidney lysates): 2- to 3 fold
